Measured values as given in ChEMBL document CHEMBL1128754, “The SAR of 6-(N-alkyl-N-acyl)-2-propyl-3-[(2-tetrazol-5-yl)biphen-4-yl)methyl]-quinazolinones as balanced affinity antagonists of the human AT1 and AT2 receptors” (Bioorg Med Chem Lett, 1995).
Positions count from the first letter of the chain named. pIC50: −log10 of the molar value.

Assays:
physchem = details: octanol/water
Description: Partition coefficient (logP)

[1] = biological target: T1, Angiotensin II receptor (Homo sapiens) (UniProt P30556+P50052); assay: Ratio of receptor binding affinity AT2/AT1 in human adrenal tissue in th+e presence of 2 mg/ml bovine serum albumin; assay type: protein assay
Rattus norvegicus [2] = species: Rattus norvegicus; details: dose 1 mg/kg; route intravenous
[3] = biological target: T2, Type-1 angiotensin II receptor (Homo sapiens, UniProt P30556); assay: biochemical
T2 sequence (P30556 whole entry): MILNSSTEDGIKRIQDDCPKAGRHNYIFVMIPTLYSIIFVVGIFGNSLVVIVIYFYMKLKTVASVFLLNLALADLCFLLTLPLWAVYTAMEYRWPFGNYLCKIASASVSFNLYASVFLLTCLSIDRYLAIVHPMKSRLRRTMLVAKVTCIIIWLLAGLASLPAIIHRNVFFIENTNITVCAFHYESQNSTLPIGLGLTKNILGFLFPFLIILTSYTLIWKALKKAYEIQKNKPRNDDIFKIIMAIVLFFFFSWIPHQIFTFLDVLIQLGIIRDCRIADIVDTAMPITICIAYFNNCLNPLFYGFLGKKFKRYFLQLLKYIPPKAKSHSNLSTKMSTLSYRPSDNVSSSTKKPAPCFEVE
Description: Binding affinity against AT1 receptor in human adrenal tissue

[4] = biological target: Angiotensin II receptor (Rattus norvegicus) (UniProt P29089+P25095+P35351); assay: Ratio of receptor binding affinity AT2/AT1 in rat adrenal tissue
[5] = biological target: T3, Type-1 angiotensin II receptor (Oryctolagus cuniculus, UniProt P34976); assay: biochemical
T3 sequence (P34976 whole entry): T2 sequence (P30556 whole entry) with I2M, V49A, I254V, I270V, R272H, R311K, T349S, A353V
Description: Binding affinity against AT1 receptor in rabbit aorta

[6] = biological target: T4, Angiotensin II receptor (AT-1) type-1 (Rattus norvegicus, UniProt P29089+P25095); assay: Binding affinity against AT1 receptor in rat adrenal tissue; assay type: tissue-based
T4 sequence (P29089 whole entry): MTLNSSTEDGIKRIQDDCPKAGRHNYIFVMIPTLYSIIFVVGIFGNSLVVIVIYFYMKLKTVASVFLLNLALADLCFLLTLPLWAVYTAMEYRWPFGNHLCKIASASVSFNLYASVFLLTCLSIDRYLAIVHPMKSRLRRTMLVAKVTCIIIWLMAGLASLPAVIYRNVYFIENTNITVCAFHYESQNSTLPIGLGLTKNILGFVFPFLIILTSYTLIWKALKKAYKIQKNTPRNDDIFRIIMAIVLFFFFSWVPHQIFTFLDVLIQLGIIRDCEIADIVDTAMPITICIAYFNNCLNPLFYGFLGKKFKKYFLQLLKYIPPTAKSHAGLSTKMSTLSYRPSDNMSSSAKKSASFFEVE
T4 sequence (P25095 whole entry): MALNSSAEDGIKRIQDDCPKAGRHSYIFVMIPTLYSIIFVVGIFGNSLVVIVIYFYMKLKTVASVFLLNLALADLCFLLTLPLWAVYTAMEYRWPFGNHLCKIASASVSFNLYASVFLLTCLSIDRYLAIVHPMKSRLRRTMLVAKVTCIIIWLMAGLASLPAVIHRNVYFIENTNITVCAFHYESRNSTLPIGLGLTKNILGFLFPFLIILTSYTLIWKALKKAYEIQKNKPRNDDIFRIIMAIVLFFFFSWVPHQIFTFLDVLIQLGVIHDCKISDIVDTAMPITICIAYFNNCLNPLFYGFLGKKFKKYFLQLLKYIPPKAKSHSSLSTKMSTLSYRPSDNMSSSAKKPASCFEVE

Rattus norvegicus [7] = species: Rattus norvegicus; details: dose 1 mg/kg; route oral
[8] = Bioavailability in dog (dose of 1.0 mg/kg i.v.) 0.5 hr; assay type: ADME, organism-based, Canis lupus familiaris; details: in vivo, iv
[9] = biological target: T1, Angiotensin II receptor (Homo sapiens); assay: Ratio of receptor binding affinity AT2/AT1 in human adrenal tissue in the presence of 2 mg/ml bovine serum albumin; assay type: protein assay
[10] = Ratio of receptor binding affinity of compound against rat midbrain tissue (AT2) to that of rabbit aorta (AT1); assay type: tissue-based

T1 sequence (P50052 whole entry, looked up, one chain of several): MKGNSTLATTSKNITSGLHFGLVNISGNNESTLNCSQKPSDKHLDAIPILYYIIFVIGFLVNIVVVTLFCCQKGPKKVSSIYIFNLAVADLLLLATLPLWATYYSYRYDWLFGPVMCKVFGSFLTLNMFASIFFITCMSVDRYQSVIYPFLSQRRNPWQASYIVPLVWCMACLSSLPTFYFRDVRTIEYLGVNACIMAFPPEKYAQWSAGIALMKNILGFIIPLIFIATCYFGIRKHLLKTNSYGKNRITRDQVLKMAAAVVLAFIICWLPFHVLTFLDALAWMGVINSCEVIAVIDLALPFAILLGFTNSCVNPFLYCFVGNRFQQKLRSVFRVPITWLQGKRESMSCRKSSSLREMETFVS

SMILES | logP (physchem) | Duration (Rattus norvegicus [2]) [h] | pIC50 [5] | other results
CCCCCN(C(=O)c1ccc(O)cc1)c1ccc2ncn(Cc3ccc(-c4ccccc4-c4nnnn4C)cc3)c(=O)c2c1 | 4.7 | >3 | 9.05 | Ratio [1]: 5.8; pIC50 [3]: 8.31; Ratio [4]: 3.1; IC50 [6]: 0.5 nM
Cn1nnnc1-c1ccccc1-c1ccc(Cn2cnc3ccc(N(Cc4ccccc4)C(=O)c4ccccn4)cc3c2=O)cc1 | 3.8 | – | 8.03 | –
CCCCCN(C(=O)c1ccncc1)c1ccc2ncn(Cc3ccc(-c4ccccc4-c4nnnn4C)cc3)c(=O)c2c1 | 4.3 | >3 | 8.55 | –
CCCCCN(C(=O)c1ccccc1)c1ccc2ncn(Cc3ccc(-c4ccccc4-c4nnnn4C)cc3)c(=O)c2c1 | 5.1 | >3 | 8.77 | Duration (Rattus norvegicus [7]): >3 h; Ratio [1]: 1; bioavailability [8]: 73%; pIC50 [3]: 8.16
CCCCN(C(=O)c1ccc(OP(=O)([O-])[O-])cc1)c1ccc2ncn(Cc3ccc(-c4ccccc4-c4nnnn4C)cc3)c(=O)c2c1.[Na+].[Na+] | 2.9 | >3 | 8.66 | Duration (Rattus norvegicus [7]): <3 h; Ratio [9]: 10.9; pIC50 [3]: 7.67; Ratio [4]: 5.4; Ratio [10]: 1.9; IC50 [6]: 3.9 nM
CCCCCN(Cc1ccccc1)c1ccc2ncn(Cc3ccc(-c4ccccc4-c4nnnn4C)cc3)c(=O)c2c1 | – | – | 7.70 | –
CCCCN(C(=O)c1ccc(F)cc1)c1ccc2ncn(Cc3ccc(-c4ccccc4-c4nnnn4C)cc3)c(=O)c2c1 | 4.7 | – | 8.64 | –
CCCCCN(C(=O)c1ccccc1OC)c1ccc2ncn(Cc3ccc(-c4ccccc4-c4nnnn4C)cc3)c(=O)c2c1 | 5 | – | 8.96 | –
CCCCCN(C(=O)c1ccc(SC)cc1)c1ccc2ncn(Cc3ccc(-c4ccccc4-c4nnnn4C)cc3)c(=O)c2c1 | – | – | 8.19 | –
Cn1nnnc1-c1ccccc1-c1ccc(Cn2cnc3ccc(N(Cc4ccccn4)C(=O)c4ccncc4)cc3c2=O)cc1 | 2.7 | <3 | 8.01 | Duration (Rattus norvegicus [7]): <3 h; Ratio [1]: 2.3; pIC50 [3]: 8.36; Ratio [4]: 1.6; IC50 [6]: 2.9 nM
Cn1nnnc1-c1ccccc1-c1ccc(Cn2cnc3ccc(N(Cc4ccccc4)C(=O)c4ccncc4)cc3c2=O)cc1 | 3.7 | – | 8.47 | –
CCCN(C(=O)c1ccc(F)cc1)c1ccc2ncn(Cc3ccc(-c4ccccc4-c4nnnn4C)cc3)c(=O)c2c1 | 4.3 | – | 8.72 | –
Cn1nnnc1-c1ccccc1-c1ccc(Cn2cnc3ccc(N(Cc4ccccn4)C(=O)c4ccco4)cc3c2=O)cc1 | 3.2 | >3 | 8.12 | Duration (Rattus norvegicus [7]): <3 h; Ratio [1]: 0.3; pIC50 [3]: 7.97; Ratio [4]: 0.3; IC50 [6]: 2.1 nM
Cn1nnnc1-c1ccccc1-c1ccc(Cn2cnc3ccc(N(C(=O)c4ccccc4)c4ccccc4)cc3c2=O)cc1 | – | – | 8.60 | –
CCCCCN(C(=O)c1cccnc1)c1ccc2ncn(Cc3ccc(-c4ccccc4-c4nnnn4C)cc3)c(=O)c2c1 | 4.3 | <3 | 8.35 | –
CCCCS(=O)(=O)N(Cc1ccccc1)c1ccc2ncn(Cc3ccc(-c4ccccc4-c4nnnn4C)cc3)c(=O)c2c1 | – | – | 7.64 | –
COCCOCCN(C(=O)c1ccccc1)c1ccc2ncn(Cc3ccc(-c4ccccc4-c4nnnn4C)cc3)c(=O)c2c1 | 3.6 | – | 8.66 | –
CCCCCN(C(=O)c1ccc([S+](C)[O-])cc1)c1ccc2ncn(Cc3ccc(-c4ccccc4-c4nnnn4C)cc3)c(=O)c2c1 (stereo not given) | 4.3 | <3 | 7.68 | –
Cn1nnnc1-c1ccccc1-c1ccc(Cn2cnc3ccc(N(Cc4ccc(C(=O)O)cc4)C(=O)c4ccccc4)cc3c2=O)cc1 | 2.4 | – | 8.19 | –

SMILES | logP (physchem) | Duration (Rattus norvegicus [2]) [h] | pIC50 [5] | other results
Cn1nnnc1-c1ccccc1-c1ccc(Cn2cnc3ccc(N(CCCCO)C(=O)c4ccccc4)cc3c2=O)cc1 | – | – | 8.59 | –
Cn1nnnc1-c1ccccc1-c1ccc(Cn2cnc3ccc(N(Cc4ccccc4)C(=O)c4ccccc4)cc3c2=O)cc1 | 4.5 | <3 | 8.34 | Ratio [4]: 0.1; IC50 [6]: 0.6 nM
Cn1nnnc1-c1ccccc1-c1ccc(Cn2cnc3ccc(N(Cc4ccc(O)cc4)C(=O)c4ccccc4)cc3c2=O)cc1 | 3.6 | – | 8.31 | Ratio [1]: 0.8; pIC50 [3]: 8.22; Ratio [4]: 1.5; IC50 [6]: 0.5 nM
CCOCCN(C(=O)c1ccccc1)c1ccc2ncn(Cc3ccc(-c4ccccc4-c4nnnn4C)cc3)c(=O)c2c1 | 3.9 | – | 8.80 | –
CCCCN(C(=O)c1ccc(O)cc1)c1ccc2ncn(Cc3ccc(-c4ccccc4-c4nnnn4C)cc3)c(=O)c2c1 | 4.2 | >3 | 8.92 | Ratio [1]: 6.8; pIC50 [3]: 8.40; Ratio [4]: 17; IC50 [6]: 0.3 nM
Cn1nnnc1-c1ccccc1-c1ccc(Cn2cnc3ccc(N(Cc4ccccn4)C(=O)c4ccccc4)cc3c2=O)cc1 | 3.6 | – | 8.17 | Ratio [1]: 0.2; pIC50 [3]: 8.29; Ratio [4]: 0.5; IC50 [6]: 1.3 nM
COC(=O)c1ccc(CN(C(=O)c2ccccc2)c2ccc3ncn(Cc4ccc(-c5ccccc5-c5nnnn5C)cc4)c(=O)c3c2)cc1 | 4.4 | <3 | 8.41 | Ratio [1]: 1.7; pIC50 [3]: 8.02; Ratio [4]: 1.9; IC50 [6]: 0.8 nM
CC(=O)OCCCCN(C(=O)c1ccccc1)c1ccc2ncn(Cc3ccc(-c4ccccc4-c4nnnn4C)cc3)c(=O)c2c1 | 3.3 | – | 8.89 | –
Cn1nnnc1-c1ccccc1-c1ccc(Cn2cnc3ccc(N(Cc4ccncc4)C(=O)c4ccccc4)cc3c2=O)cc1 | 3.4 | – | 8.26 | –
Cn1nnnc1-c1ccccc1-c1ccc(Cn2cnc3ccc(N(CCCC(=O)O)C(=O)c4ccccc4)cc3c2=O)cc1 | 2.3 | – | 8.02 | –
CCCCCN(C(=O)c1ccc(F)cc1)c1ccc2ncn(Cc3ccc(-c4ccccc4-c4nnnn4C)cc3)c(=O)c2c1 | 5.2 | – | 8.77 | –
CCCCC(=O)N(Cc1ccccc1)c1ccc2ncn(Cc3ccc(-c4ccccc4-c4nnnn4C)cc3)c(=O)c2c1 | 5.4 | >3 | 8.62 | Duration (Rattus norvegicus [7]): >3 h; Ratio [1]: 0.1; pIC50 [3]: 8.24
CCCCCN(C(=O)c1ccc(S(C)(=O)=O)cc1)c1ccc2ncn(Cc3ccc(-c4ccccc4-c4nnnn4C)cc3)c(=O)c2c1 | 4.4 | – | 8.14 | –
CCCCCN(C(=O)c1ccco1)c1ccc2ncn(Cc3ccc(-c4ccccc4-c4nnnn4C)cc3)c(=O)c2c1 | – | <3 | 8.49 | –
CCCCCN(C(=O)c1ccc(OCc2ccccc2)cc1)c1ccc2ncn(Cc3ccc(-c4ccccc4-c4nnnn4C)cc3)c(=O)c2c1 | > 5.7 | – | 8.08 | –
CCOC(=O)CCCN(C(=O)c1ccccc1)c1ccc2ncn(Cc3ccc(-c4ccccc4-c4nnnn4C)cc3)c(=O)c2c1 | 4.1 | – | 8.64 | –
Cn1nnnc1-c1ccccc1-c1ccc(Cn2cnc3ccc(N(Cc4ccccc4)C(=O)c4cccnc4)cc3c2=O)cc1 | 3.7 | – | 7.96 | –
Cn1nnnc1-c1ccccc1-c1ccc(Cn2cnc3ccc(N(CC(=O)c4ccco4)C(=O)c4ccccc4)cc3c2=O)cc1 | – | – | 7.73 | –
